In publication PMC11968843, “Sulphostin-inspired N-phosphonopiperidones as selective covalent DPP8 and DPP9 inhibitors” (Nature Communications, 2025):

Experiments:
Test in all cases: Competitive ABPP / direct target identification with alkyne probe 9 in HEK293 cell lysates
Format in all cases: binding, H. sapiens
[1] = biological target: T1, HEK293 cell lysates (proteome-wide targets of probe 9) (Homo sapiens, UniProt P50990); conditions: protein CCT8
T1 construct: endogenous in cells; host or cells: HEK293 cell lysate

[2] = biological target: T2, HEK293 cell lysates (proteome-wide targets of probe 9) (Homo sapiens, UniProt P46776); conditions: protein RPL27A
T2 construct: endogenous in cells; host or cells: HEK293 cell lysate

[3] = biological target: T3, HEK293 cell lysates (proteome-wide targets of probe 9) (Homo sapiens, UniProt P62258); conditions: protein YWHAE
T3 construct: endogenous in cells; host or cells: HEK293 cell lysate

[4] = biological target: T4, HEK293 cell lysates (proteome-wide targets of probe 9) (Homo sapiens, UniProt Q5T749); conditions: protein KPRP
T4 construct: endogenous in cells; host or cells: HEK293 cell lysate

[5] = biological target: T5, HEK293 cell lysates (proteome-wide targets of probe 9) (Homo sapiens, UniProt P14618); conditions: protein PKM
T5 construct: endogenous in cells; host or cells: HEK293 cell lysate

[6] = biological target: T6, HEK293 cell lysates (proteome-wide targets of probe 9) (Homo sapiens, UniProt O60506); conditions: protein SYNCRIP
T6 construct: endogenous in cells; host or cells: HEK293 cell lysate

[7] = biological target: T7, HEK293 cell lysates (proteome-wide targets of probe 9) (Homo sapiens, UniProt P62424); conditions: protein RPL7A
T7 construct: endogenous in cells; host or cells: HEK293 cell lysate

[8] = biological target: T8, HEK293 cell lysates (proteome-wide targets of probe 9) (Homo sapiens, UniProt P78371); conditions: protein CCT2
T8 construct: endogenous in cells; host or cells: HEK293 cell lysate

[9] = biological target: T9, HEK293 cell lysates (proteome-wide targets of probe 9) (Homo sapiens, UniProt Q15366); conditions: protein PCBP2
T9 construct: endogenous in cells; host or cells: HEK293 cell lysate

[10] = biological target: T10, HEK293 cell lysates (proteome-wide targets of probe 9) (Homo sapiens, UniProt P08758); conditions: protein ANXA5
T10 construct: endogenous in cells; host or cells: HEK293 cell lysate

[11] = biological target: T11, HEK293 cell lysates (proteome-wide targets of probe 9) (Homo sapiens, UniProt P49368); conditions: protein CCT3
T11 construct: endogenous in cells; host or cells: HEK293 cell lysate

[12] = biological target: T12, HEK293 cell lysates (proteome-wide targets of probe 9) (Homo sapiens, UniProt Q96RQ3); conditions: protein MCCC1
T12 construct: endogenous in cells; host or cells: HEK293 cell lysate

[13] = biological target: T13, HEK293 cell lysates (proteome-wide targets of probe 9) (Homo sapiens, UniProt P10809); conditions: protein HSPD1
T13 construct: endogenous in cells; host or cells: HEK293 cell lysate

[14] = biological target: T14, HEK293 cell lysates (proteome-wide targets of probe 9) (Homo sapiens, UniProt P32119); conditions: protein PRDX2
T14 construct: endogenous in cells; host or cells: HEK293 cell lysate

[15] = biological target: T15, HEK293 cell lysates (proteome-wide targets of probe 9) (Homo sapiens, UniProt P62829); conditions: protein RPL23
T15 construct: endogenous in cells; host or cells: HEK293 cell lysate

[16] = biological target: T16, HEK293 cell lysates (proteome-wide targets of probe 9) (Homo sapiens, UniProt P61247); conditions: protein RPS3A
T16 construct: endogenous in cells; host or cells: HEK293 cell lysate

[17] = biological target: T17, HEK293 cell lysates (proteome-wide targets of probe 9) (Homo sapiens, UniProt P22234); conditions: protein PAICS
T17 construct: endogenous in cells; host or cells: HEK293 cell lysate

[18] = biological target: T18, HEK293 cell lysates (proteome-wide targets of probe 9) (Homo sapiens, UniProt P09211); conditions: protein GSTP1
T18 construct: endogenous in cells; host or cells: HEK293 cell lysate

[19] = biological target: T19, HEK293 cell lysates (proteome-wide targets of probe 9) (Homo sapiens, UniProt P50914); conditions: protein RPL14
T19 construct: endogenous in cells; host or cells: HEK293 cell lysate

[20] = biological target: T20, HEK293 cell lysates (proteome-wide targets of probe 9) (Homo sapiens, UniProt P12277); conditions: protein CKB
T20 construct: endogenous in cells; host or cells: HEK293 cell lysate

[21] = biological target: T21, HEK293 cell lysates (proteome-wide targets of probe 9) (Homo sapiens, UniProt Q9NR30); conditions: protein DDX21
T21 construct: endogenous in cells; host or cells: HEK293 cell lysate

[22] = biological target: T22, HEK293 cell lysates (proteome-wide targets of probe 9) (Homo sapiens, UniProt Q07020); conditions: protein RPL18
T22 construct: endogenous in cells; host or cells: HEK293 cell lysate

[23] = biological target: T23, HEK293 cell lysates (proteome-wide targets of probe 9) (Homo sapiens, UniProt P30041); conditions: protein PRDX6
T23 construct: endogenous in cells; host or cells: HEK293 cell lysate

[24] = biological target: T24, HEK293 cell lysates (proteome-wide targets of probe 9) (Homo sapiens, UniProt P13639); conditions: protein EEF2
T24 construct: endogenous in cells; host or cells: HEK293 cell lysate

[25] = biological target: T25, HEK293 cell lysates (proteome-wide targets of probe 9) (Homo sapiens, UniProt O43175); conditions: protein PHGDH
T25 construct: endogenous in cells; host or cells: HEK293 cell lysate

[26] = biological target: T26, HEK293 cell lysates (proteome-wide targets of probe 9) (Homo sapiens, UniProt Q13085); conditions: protein ACACA
T26 construct: endogenous in cells; host or cells: HEK293 cell lysate

[27] = biological target: T27, HEK293 cell lysates (proteome-wide targets of probe 9) (Homo sapiens, UniProt Q06830); conditions: protein PRDX1
T27 construct: endogenous in cells; host or cells: HEK293 cell lysate

[28] = biological target: T28, HEK293 cell lysates (proteome-wide targets of probe 9) (Homo sapiens, UniProt P19338); conditions: protein NCL
T28 construct: endogenous in cells; host or cells: HEK293 cell lysate

[29] = biological target: T29, HEK293 cell lysates (proteome-wide targets of probe 9) (Homo sapiens, UniProt P22314); conditions: protein UBA1
T29 construct: endogenous in cells; host or cells: HEK293 cell lysate

[30] = biological target: T30, HEK293 cell lysates (proteome-wide targets of probe 9) (Homo sapiens, UniProt P48147); conditions: protein PREP (Prolyl endopeptidase)
T30 construct: endogenous in cells; host or cells: HEK293 cell lysate

[31] = biological target: T31, HEK293 cell lysates (proteome-wide targets of probe 9) (Homo sapiens, UniProt P49327); conditions: protein FASN
T31 construct: endogenous in cells; host or cells: HEK293 cell lysate

For `C#CCCCP(=O)(OCC)N1CCCC(N)C1=O.O=C(O)C(F)(F)F` (mixture of isomers) [Compound 9], the “Log2-fold change (9/DMSO)” value [1] was 0.4828, the “Log2-fold change (9/DMSO)” value [2] was -2.372 and the “Log2-fold change (9/DMSO)” value [3] was 0.2377. The “Log2-fold change (9/DMSO)” value [4] was -0.1834, the “Log2-fold change (9/DMSO)” value [5] was -0.3682 and the “Log2-fold change (9/DMSO)” value [6] was 0.3304. The “Log2-fold change (9/DMSO)” value [7] was 1.788, the “Log2-fold change (9/DMSO)” value [8] was 1.1495 and the “Log2-fold change (9/DMSO)” value [9] was 1.083. The “Log2-fold change (9/DMSO)” value [10] was -0.9261, the “Log2-fold change (9/DMSO)” value [11] was 1.2654 and the “Log2-fold change (9/DMSO)” value [12] was -0.5895. The “Log2-fold change (9/DMSO)” value [13] was -1.284, the “Log2-fold change (9/DMSO)” value [14] was 0.06438 and the “Log2-fold change (9/DMSO)” value [15] was 0.1532. For the same compound, the “Log2-fold change (9/DMSO)” value [16] was 0.9053, the “Log2-fold change (9/DMSO)” value [17] was -0.1992 and the “Log2-fold change (9/DMSO)” value [18] was 1.848. For the same compound, the “Log2-fold change (9/DMSO)” value [19] was 0.6133, the “Log2-fold change (9/DMSO)” value [20] was 0.9157 and the “Log2-fold change (9/DMSO)” value [21] was 0.9591. The “Log2-fold change (9/DMSO)” value [22] was 1.2987, the “Log2-fold change (9/DMSO)” value [23] was 0.7412 and the “Log2-fold change (9/DMSO)” value [24] was 0.2112. The “Log2-fold change (9/DMSO)” value [25] was 0.8847, the “Log2-fold change (9/DMSO)” value [26] was -0.276 and the “Log2-fold change (9/DMSO)” value [27] was 0.4333. The “Log2-fold change (9/DMSO)” value [28] was 1.258, the “Log2-fold change (9/DMSO)” value [29] was 0.5182 and the “Log2-fold change (9/DMSO)” value [30] was 4.8. For the same compound, the “Log2-fold change (9/DMSO)” value [31] was 0.4818.
`CCCCCc1ccc(SCCP(=O)(OCC)N2CCC[C@H](N)C2=O)cc1.O=C(O)C(F)(F)F` (some centres unmarked) [Compound 16] was tested, and the “Log2-fold change (16/9)” value [1] was -0.5032, the “Log2-fold change (16/9)” value [2] was 0.01928 and the “Log2-fold change (16/9)” value [3] was 0.3661. The “Log2-fold change (16/9)” value [4] was 0.315, the “Log2-fold change (16/9)” value [5] was 0.00104 and the “Log2-fold change (16/9)” value [6] was -1.04. The “Log2-fold change (16/9)” value [7] was 0.2888, the “Log2-fold change (16/9)” value [8] was -0.827 and the “Log2-fold change (16/9)” value [9] was -0.4376. For the same compound, the “Log2-fold change (16/9)” value [10] was 0.8558, the “Log2-fold change (16/9)” value [11] was -1.0355 and the “Log2-fold change (16/9)” value [12] was 0.1036. For the same compound, the “Log2-fold change (16/9)” value [13] was 0.04221, the “Log2-fold change (16/9)” value [14] was 1.348 and the “Log2-fold change (16/9)” value [15] was -1.084. The “Log2-fold change (16/9)” value [16] was -0.3832, the “Log2-fold change (16/9)” value [17] was 0.0197 and the “Log2-fold change (16/9)” value [18] was -1.311. The “Log2-fold change (16/9)” value [19] was -1.54, the “Log2-fold change (16/9)” value [20] was -0.7041 and the “Log2-fold change (16/9)” value [21] was 0.06992. The “Log2-fold change (16/9)” value [22] was -1.003, the “Log2-fold change (16/9)” value [23] was 0.07848 and the “Log2-fold change (16/9)” value [24] was -0.2717. For the same compound, the “Log2-fold change (16/9)” value [25] was -0.3162, the “Log2-fold change (16/9)” value [26] was 0.3401 and the “Log2-fold change (16/9)” value [27] was 0.107. For the same compound, the “Log2-fold change (16/9)” value [28] was -1.045, the “Log2-fold change (16/9)” value [29] was -0.4211 and the “Log2-fold change (16/9)” value [30] was -0.8405. The “Log2-fold change (16/9)” value [31] was -0.4881.
